In patent publication US20120202856A1, “SUBSTITUTED BENZIMDAZOLE DERIVATIVES USEFUL AS TRPM8 RECEPTOR MODULATORS” (priority 2011, published 2012):
Values joined by “and” are separate entries in the source; they are usually repeats but may differ in a detail not shown here. Identical values can stand only once. One block for each molecule: values may come before it.

Tests used:
canine TRPM8 = target: T1, canine TRPM8 (Canis lupus familiaris, UniProt Q1A7N1); experiment: In Vitro Canine TRPM8 Functional Assay (intracellular Ca2+ fluorescence, icilin activation, HEK293 cells); type: cell-based; details: for IC50: HEK293 cells expressing canine TRPM8, icilin activation, individually measured values (batches/salt forms), read-out: IC50 (nM), in vitro TRP M8 Activity
T1 construct: expressed in transfected cells
T1 sequence (Q1A7N1 1-1104): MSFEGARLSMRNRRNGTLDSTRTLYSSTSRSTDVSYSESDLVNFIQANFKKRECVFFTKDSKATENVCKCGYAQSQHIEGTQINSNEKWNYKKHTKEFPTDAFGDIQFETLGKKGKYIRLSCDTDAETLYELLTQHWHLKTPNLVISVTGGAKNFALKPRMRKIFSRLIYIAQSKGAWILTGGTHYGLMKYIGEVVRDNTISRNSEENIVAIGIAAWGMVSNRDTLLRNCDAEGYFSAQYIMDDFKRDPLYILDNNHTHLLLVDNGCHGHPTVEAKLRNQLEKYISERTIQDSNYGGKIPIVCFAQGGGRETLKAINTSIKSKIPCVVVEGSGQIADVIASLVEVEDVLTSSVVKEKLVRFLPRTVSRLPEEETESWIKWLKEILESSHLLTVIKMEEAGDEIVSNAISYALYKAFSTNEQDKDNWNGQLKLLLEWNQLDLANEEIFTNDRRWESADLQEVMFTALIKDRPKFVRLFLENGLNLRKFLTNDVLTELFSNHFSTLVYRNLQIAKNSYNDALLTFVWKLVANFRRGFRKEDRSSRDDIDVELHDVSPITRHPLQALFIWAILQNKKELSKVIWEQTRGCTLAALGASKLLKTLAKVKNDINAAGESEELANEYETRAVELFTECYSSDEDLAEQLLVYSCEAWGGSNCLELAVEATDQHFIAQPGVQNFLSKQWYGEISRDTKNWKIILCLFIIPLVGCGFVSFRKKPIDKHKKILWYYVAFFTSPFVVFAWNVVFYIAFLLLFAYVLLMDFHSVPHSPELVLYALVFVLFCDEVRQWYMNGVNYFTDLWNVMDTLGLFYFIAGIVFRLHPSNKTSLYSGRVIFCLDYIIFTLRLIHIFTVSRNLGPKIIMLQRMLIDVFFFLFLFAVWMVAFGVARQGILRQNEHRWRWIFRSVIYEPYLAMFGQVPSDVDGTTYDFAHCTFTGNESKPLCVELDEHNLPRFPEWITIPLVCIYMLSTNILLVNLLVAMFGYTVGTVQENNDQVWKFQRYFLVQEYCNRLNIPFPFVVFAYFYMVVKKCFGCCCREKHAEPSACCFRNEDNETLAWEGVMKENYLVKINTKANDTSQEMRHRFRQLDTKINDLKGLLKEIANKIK
Procedure, shortened: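 HEK293 cells expressing canine TRPM8 loaded with Calcium 3 dye, then stimulated with icilin; intracellular Ca2+ rise read on FLIPR or FDSS. Peak fluorescence minus basal normalized to percent maximal response; IC50 from sigmoidal nonlinear regression of quadruplicate wells.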

[1] = tested on: icilin-induced “wet-dog” shakes (WDS); experiment: Inhibition of Icilin-Induced “Wet-Dog” Shakes in Rats; type: in vivo, Sprague Dawley rats; details: po, rat, 1.5 hrs
Procedure: The test compound was administered in 10% hydroxypropyl-β-cyclodextrin (HP-13-CD), p.o., 60 min before icilin.
% Inhibition=[1−(test compound WDS count/vehicle WDS count)]×100.

[2] = tested on: CCI-induced cold hypersensitivity; experiment: Chronic Constriction Injury (CCI)-Induced Model of Neuropathic Pain, Acetone-Induced Hypersensitivity; type: in vivo, Sprague-Dawley rats; details: rat, p.o., acetone-induced withdrawals, 2 h after administration
Description: Male Sprague-Dawley rats (225-450 g; n=5-8/treatment) were used to evaluate the ability of test compounds to reverse CCl-induced cold hypersensitivity. Four loose ligatures of 4-0 chromic gut were surgically placed around the left sciatic nerve under inhalation anesthesia as described by Bennett et al. (BENNETT, G. J., et al., “A peripheral mononeuropathy in rat that produces disorder of pain sensation like those seen in man”, Pain, 1988, pp 87-107, Vol. 33(1)). Fourteen to 35 days following CCl surgery, subjects were placed in elevated observation chambers containing wire mesh floors, and five applications of acetone (0.05 mL/application separated by approximately 5 min) were spritzed onto the plantar surface of the paw using a multidose syringe. An abrupt withdrawal or lifting of the paw was considered a positive response. The number of positive responses was recorded for each rat over the five trials. […] The number of withdrawals was re-determined at 2 hr after compound administration. […] Results are presented below as a percent inhibition of […], which was calculated for each subject and then averaged by treatment as follows: […]

rats = details: cited from earlier work
humans = details: 5-10 mg ingested orally; cited from earlier work

Compound: CC(C)(C)c1cc(-c2nc3cc(-c4ccccc4OC(F)(F)F)ccc3[nH]2)on1.[Na] [Compound 10, 2-(3-tert-Butylisoxazol-5-yl)-5-(2-trifluoromethoxyphenyl)-1H-benzimidazole sodium salt]
- IC50 (canine TRPM8): 12 nM and 15 nM and 10 nM
- inhibition in vivo at 30 mg/kg ([1]; dose 30 mg/kg): 97.3%
- CCI % Inhibition @ 2 h [2]: 57.1%

Compound: Cn1nc(C(C)(C)C)c(C#N)c1-c1nc2cc(-c3ccccc3Cl)cc(Cl)c2[nH]1.[Na] [Compound 168, 3-tert-Butyl-5-[7-chloro-5-(2-chloro-phenyl)-1H-benzimidazol-2-yl]-1-methyl-1H-pyrazole-4-carbonitrile sodium salt]
- % Inh (%) @0.2 μM, in vitro TRP M8 Activity (canine TRPM8; 0.2 μM test compound, individually measured values, sodium salt, 0.2 µM): 101% and 100% (2×)
- inhibition at 0.2 µM (canine TRPM8; HEK293, 0.2 μM test compound, individually measured values, read-out: % Inh (%) @0.2 μM, in vitro TRP M8 Activity): 99%
- IC50 (canine TRPM8): 2.3 nM and 7 nM and 4.3 nM and 4.7 nM and 3.2 nM
- inhibition in vivo at 3 mg/kg ([1]; p.o., dose 3 mg/kg, read-out: Icilin % Inhibition @1.5 hrs): 86%
- CCI % Inhibition @ 2 h [2]: 74.3%

Compound: O=C1NC(c2cccc([N+](=O)[O-])c2)=CCN1c1ccccc1O [Icilin]
- behaviour caused in initial in vivo testing (rats): “wet-dog” shakes
- coldness in the mouth, pharynx and chest lasting (humans): 30 to 60 min

Second part, led by results:

- IC50 (canine TRPM8): 3.7 nM and 4.6 nM and 3.8 nM
Compound: Cl.Cn1nc(C(C)(C)C)c(Cl)c1-c1nc2cc(-c3c(F)cccc3F)ccc2[nH]1 [Compound 85, 2-(5-tert-Butyl-4-chloro-2-methyl-2H-pyrazol-3-yl)-5-(2,6-difluoro-phenyl)-1H-benzimidazole hydrochloride]
- inhibition in vivo at 10 mg/kg ([1]; p.o., dose 10 mg/kg, read-out: Icilin % Inhibition @1.5 hrs): 96.4%
- CCI % Inhibition @ 2 h [2]: 34.3%

- IC50 (canine TRPM8): 7.4 nM and 5 nM and 9.3 nM
Compound: Cl.Cn1nc(C(C)(C)C)c(Cl)c1-c1nc2cc(-c3ccccc3F)ccc2[nH]1 [Compound 90, 2-(5-tert-Butyl-4-chloro-2-methyl-2H-pyrazol-3-yl)-5-(2-fluoro-phenyl)-1H-benzimidazole hydrochloride]
- inhibition in vivo at 5.6 mg/kg ([1]; dose 5.6 mg/kg): 52.7%
- CCI % Inhibition @ 2 h [2]: 22.5%
